Laboratory results as given in patent publication US20030199558A1, “Hydroxamic acid and its derivatives as inhibitors of melanocyte tyrosinase for topical skin lighteners” (Integriderm, Inc., priority 2001, published 2003).
≈ marks a conversion by molar mass, not a printed value. Where “and” joins values, the source holds several entries; their conditions need not be identical. Identical values can stand only once. Like-named read-outs stand apart in the source and are kept apart here.

Tests used:
Mel Ab melanocyte [1] = assay: mammalian Mel Ab melanocyte culture pigment assay; type: cell-based, mouse; conditions: read-out: P: concentration of compound that produces 50% inhibition in the mammalian Mel Ab melanocyte culture pigment assay
From the text: (§1) In the present invention, one or more of three in vitro bioassays can be utilized to evaluate the efficacy and toxicity of candidate skin-lightening compounds. The three bioassays characterize the compounds with regard to mammalian tyrosinase enzyme inhibition (cell free), pigmentation in cultured melanocyte cells, and cytotoxicity of mammalian cultured cells. Both cell-based pigmentation and cell-free enzymatic assays have been developed using the mammalian melanocyte cell line, Mel-Ab, a C57BL/6 mouse-derived cell line that produces high levels of melanin. A distinct advantage of this approach is that humans share substantial sequence similarities in their genes (DNA) and proteins (such as tyrosinase) with mice, relative to non-mammalian species (e.g., mushrooms). So, in vitro mouse Mel-Ab melanocytes can serve as adequate surrogates for human melanocytes and Mel-Ab-derived tyrosinase may substitute for the human enzyme for many pharmacologic purposes.
(§2) These adherent murine melanocytes are grown on tissue culture plastic in medium supplemented with fetal bovine serum, 12-O-tetradecanoylphorbol-13-acetate (TPA) to stimulate cell division via down-regulation of protein kinase C, [22, 23] and cholera toxin to stimulate adenylate cyclase activity in the absence of α-MSH. Cellular lysates of Mel-Ab cells may be used as tyrosinase enzyme preparations. Multi-well plate assays have been validated for enzyme inhibition (e.g., DOPA oxidation by calorimetric measurement or radiolabeled substrate incorporation into melanin) and for pigmentation assays on cultured Mel-Ab cells. After 4-6 days of treatment of cultured cells, melanin content is determined using a spectrophotometer at 400+ nm. This assay can detect an apparent loss in pigmentation resulting from either inhibition of de novo synthesis (e.g. via inhibition of tyrosinase, or the adenylate cyclase pathway, or another pathway) or a cytostatic/cytotoxic mechanism. It is therefore a broad primary screen. It is used in parallel with the tyrosinase enzymatic assay to determine whether an inhibitor of pigmentation at the cellular level is acting primarily at the enzyme level.
(§3) Inhibition [μM] as measured in three assays. Here “E” “E” [μM] is the concentration of compound that produces 50% inhibition in the cell-free mammalian tyrosinase enzyme assay is the concentration of compound that produces 50% inhibition in the cell-free mammalian tyrosinase enzyme assay. “P” represents the concentration of compound that produces 50% inhibition in the mammalian Mel Ab melanocyte culture pigment assay system. “T” is the concentration of compound that results in 50% reduction in cell number in the mammalian melanocyte culture toxicity assay system.

mammalian tyrosinase [2] = target: T1, mammalian tyrosinase (Mus musculus, UniProt P11344); assay: cell-free mammalian tyrosinase enzyme assay; type: biochemical; conditions: cell-free enzyme extract; read-out: E: concentration of compound that produces 50% inhibition in the cell-free mammalian tyrosinase enzyme assay
T1 construct: Cellular lysates of Mel-Ab cells may be used as tyrosinase enzyme preparations; endogenous in cells; host or cells: Mel-Ab mouse melanocytes (cell lysate)
T1 sequence (P11344 19-533): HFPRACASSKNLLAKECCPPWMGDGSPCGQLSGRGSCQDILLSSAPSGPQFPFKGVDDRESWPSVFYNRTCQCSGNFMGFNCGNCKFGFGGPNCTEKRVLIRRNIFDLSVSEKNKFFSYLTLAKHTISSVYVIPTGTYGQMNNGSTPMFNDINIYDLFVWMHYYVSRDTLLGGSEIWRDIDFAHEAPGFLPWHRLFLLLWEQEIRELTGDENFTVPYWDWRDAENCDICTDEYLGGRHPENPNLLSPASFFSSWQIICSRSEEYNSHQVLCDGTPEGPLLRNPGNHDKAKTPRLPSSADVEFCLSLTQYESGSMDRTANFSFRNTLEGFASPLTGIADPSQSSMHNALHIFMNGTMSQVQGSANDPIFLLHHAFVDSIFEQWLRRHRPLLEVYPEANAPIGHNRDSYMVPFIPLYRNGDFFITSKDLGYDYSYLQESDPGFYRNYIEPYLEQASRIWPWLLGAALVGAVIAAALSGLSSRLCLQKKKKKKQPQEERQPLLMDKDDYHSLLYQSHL
From the text: as §1, §2
A first class of compounds based upon the template compound benzohydroxamic acid were tested for tyrosinase inhibition by methods described in Curto, E. V., et al. (1999). Results of the tests are given in Examples 1-5.
as §3

[3] = tested on: mammalian melanocyte culture; assay: mammalian melanocyte culture toxicity assay; type: cell-based, mouse
From the text: To determine cytotoxicity (and/or cytostasis), crystal violet or other staining methods may be used to quantify adherent cell numbers following a period of treatment by an agent.

[4] = tested on: mammalian melanocyte culture; conditions: cited from earlier work
mammalian tyrosinase [5] = target: T1, mammalian tyrosinase; conditions: cited from earlier work
Mel Ab melanocyte [6] = conditions: cited from earlier work

Structure (SMILES)	IC50 (Mel Ab melanocyte [1]; Mus musculus, Mel-Ab) [µM]	IC50 (mammalian tyrosinase [2]) [µM]	T: concentration of compound that results in 50% reduction in cell number in the mammalian melanocyte culture toxicity assay [3] [µM]	also measured
CC(=O)c1ccc(O)c(C(=O)NO)c1 [ID-474]	> 1000	51	>1000	–
O=C(NO)c1ccncc1 [ID-245]	183	3.2	566	–
O=C(NO)c1cccc(Cl)c1 [ID-482, 3-Chlorobenzohydroxamic acid]	40	< 0.25	577	–
COc1ccc(C(=O)N[O-])cc1.[K+] [ID-479, Potassium salt of 4-methoxybenzohydroxamic acid]	–	1.67	64	IC50 (Mel Ab melanocyte [1]): 43 µM
COc1ccccc1C(=O)NO [ID-483, 2-Methoxybenzohydroxamic acid]	807	32	900	–
COc1ccc(C(=O)NO)cc1OC [ID-456, 3,4-Dimethoxybenzohydroxamic acid]	576	15	641	–
O=C(NO)c1ccccc1O [ID-282, Salicylhydroxamic acid]	–	3.7	974	–
CC(=O)Nc1cccc(C(=O)NO)c1 [ID-486, 3-Acetamidobenzohydroxamic acid]	369	5.3	>1000	–
Cc1cccc(C(=O)NO)c1 [ID-481, 3-Methylbenzohydroxamic acid]	60	< 0.25	522	–
Nc1ccccc1C(=O)NO [ID-318, 2-Aminobenzohydroxamic acid]	431	19	600	–
O=C(NO)c1ccccc1 [ID-357, Benzohydroxamic acid]	64	0.82	64	–
Cc1cccc(C(=O)N(C)O)c1 [ID-485, 3,N-Dimethylbenzohydroxamic acid]	> 1000	68	>1000	–
COC(=O)c1cc(O)ccc1O [methyl gentisate]	–	–	–	melanocyte cytotoxicity IC50 ([4]; Curto et al. (1999)): 118.7 ± 12 µg/mL; IC50 ([4]; Curto et al. (1999), read-out: melanocyte cytotoxicity IC50): 707 µM; IC50 (mammalian tyrosinase [5]; Curto et al. (1999), read-out: IC50 against tyrosinase in cell-free assays (converted)): 67 µM and 66.6 µM; IC50 in pigmentation inhibition in melanocyte cell cultures (Mel Ab melanocyte [6]; Curto et al. (1999)): 30.9 ± 5 µg/mL (≈ 184 µM); IC50 (Mel Ab melanocyte [6]; Curto et al. (1999), read-out: IC50 in pigmentation inhibition in melanocyte cell cultures): 184 µM
CC(=O)Nc1ccccc1C(=O)NO [ID-484, 2-Acetamidobenzohydroxamic acid]	> 1000	> 231	>1000	–
COc1ccc(C(=O)NO)cc1 [ID-480, 4-Methoxybenzohydroxamic acid]	57	1.26	170	–
CN(C)c1ccc(C(=O)NO)cc1 [ID-498, 4-Dimethylaminobenzo-hydroxamic acid]	44	2.2	136	–
COc1ccc(C(=O)NO)c(O)c1 [ID-462]	> 1000	3.6	>1000	–
Oc1ccc(O)cc1 [hydroquinone]	–	–	–	melanocyte cytotoxicity [4]: potent melanocyte cytotoxicity; enzymatic inhibition (mammalian tyrosinase [5]): minimal enzymatic inhibition; IC50 on Mel-Ab culture (Mel Ab melanocyte [6]; positive control, owing to cytotoxicity and not inhibition of pigmentation per se): low micrograms per milliliter range
COc1ccc(C(=O)N[O-])cc1OC.[K+] [ID-458, Potassium salt of 3,4-dimethoxy-benzohydroxamic acid]	–	23	624	IC50 (Mel Ab melanocyte [1]): 637 µM
O=C(NO)c1cccc(Oc2ccccc2)c1 [ID-500, 3-Phenoxybenzohydroxamic acid]	234	0.16	>300	–
CCCCOc1ccc(C(=O)NO)cc1 [ID-477, 4-Butoxybenzohydroxamic acid]	326	12	>554	–
Nc1cccc(C(=O)NO)c1 [ID-461, 3-Aminobenzohydroxamic acid]	225	4	>1000	–
Cc1ccc(C(=O)NO)cc1N [ID-499, 13-Amino-4-methyl-benzohydroxamic acid]	177	6.4	747	–
Cc1ccc(C(=O)NO)cc1 [ID-497, 4-Methylbenzohydroxamic acid]	45	0.29	160	–
COc1cccc(C(=O)NO)c1 [ID-478, 3-Methoxybenzohydroxamic acid]	148	0.91	580	–
Nc1ccc(C(=O)NO)cc1 [ID-476, 4-Aminobenzohydroxamic acid]	64	0.34	550	–
